For the test, the target named is T1, GST-Xa-hAAK1 (Homo sapiens, UniProt Q2M2I8).
T1 construct: made in house
T1 sequence (Q2M2I8 whole entry): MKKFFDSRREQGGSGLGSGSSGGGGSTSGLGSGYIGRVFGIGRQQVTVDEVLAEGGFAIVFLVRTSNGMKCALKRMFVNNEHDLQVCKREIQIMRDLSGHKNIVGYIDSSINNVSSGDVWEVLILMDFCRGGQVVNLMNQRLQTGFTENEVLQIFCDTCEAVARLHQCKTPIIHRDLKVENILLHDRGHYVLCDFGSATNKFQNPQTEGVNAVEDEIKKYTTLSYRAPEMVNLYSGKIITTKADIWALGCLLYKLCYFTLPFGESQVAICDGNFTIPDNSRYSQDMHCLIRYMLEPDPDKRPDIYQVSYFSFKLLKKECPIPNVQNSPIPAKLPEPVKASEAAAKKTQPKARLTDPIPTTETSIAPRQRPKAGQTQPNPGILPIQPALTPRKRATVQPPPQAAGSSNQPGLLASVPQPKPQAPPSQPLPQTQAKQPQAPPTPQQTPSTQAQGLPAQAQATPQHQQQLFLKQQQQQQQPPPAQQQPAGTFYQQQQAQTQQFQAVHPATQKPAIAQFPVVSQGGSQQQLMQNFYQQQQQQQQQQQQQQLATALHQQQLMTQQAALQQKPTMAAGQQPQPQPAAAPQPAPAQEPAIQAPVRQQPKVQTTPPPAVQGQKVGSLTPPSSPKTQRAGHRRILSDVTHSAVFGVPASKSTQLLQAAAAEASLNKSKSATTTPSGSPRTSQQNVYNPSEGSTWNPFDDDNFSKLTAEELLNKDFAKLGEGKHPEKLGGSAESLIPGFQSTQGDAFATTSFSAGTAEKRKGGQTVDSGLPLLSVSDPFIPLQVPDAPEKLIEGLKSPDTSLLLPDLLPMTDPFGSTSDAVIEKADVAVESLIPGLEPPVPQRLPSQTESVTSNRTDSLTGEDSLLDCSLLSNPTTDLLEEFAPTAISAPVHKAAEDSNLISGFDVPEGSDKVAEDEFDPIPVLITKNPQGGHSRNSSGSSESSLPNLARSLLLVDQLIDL
Put plainly: AAK1 Kinase Assay. The note with it: IC50 (nM), ATP 22 μM; 3 hours at room temperature; Caliper LabChip 3000. The format is biochemical. On the procedure: The assays were performed in U-bottom 384-well plates. […] The reactions were initiated by the combination of bacterially expressed, GST-Xa-hAAK1 with substrates and test compounds. The reactions were incubated at room temperature for 3 hours and terminated by adding 60 μl of 35 mM EDTA buffer to each sample. The reactions were analyzed on the Caliper LabChip 3000 (Caliper, Hopkinton, Mass.) by electrophoretic separation of the fluorescent substrate and phosphorylated product. […] Compounds were dissolved at 10 mM in dimethylsulfoxide (DMSO) and evaluated at eleven concentrations. IC50 values were derived by non-linear regression analysis.
As for `COc1cc(NC(=O)[C@H](N)CC(C)C)c(C#N)cc1-c1cnco1` [Example 101, (R)-2-Amino-N-(2-cyano-5-methoxy-4-(oxazol-5-yl)phenyl)-4-methylpentanamide], the half-inhibitory concentration (IC50) is 25 nM.

Regarding `COc1cc(NC(=O)[C@H](N)C2CCCC2)c(F)cc1-c1cnco1` [Example 100, (R)-2-Amino-2-cyclopentyl-N-(2-fluoro-5-methoxy-4-(oxazol-5-yl)phenyl)acetamide], the IC50 was determined as 530 nM.

As to `COc1cc(NC(=O)[C@H](N)CC(C)(C)C)c(F)cc1-c1cnco1` (stereo in doubt) [Example 97, 2-Amino-N-(2-fluoro-5-methoxy-4-(oxazol-5-yl)phenyl)-4,4-dimethylpentanamide], the IC50 turned out to be 630 nM.

As for `COc1cc(NC(=O)[C@H](N)CC(C)C)ccc1-c1ccncc1` [Example 20, (R)-2-Amino-N-(3-methoxy-4-(pyridin-4-yl)phenyl)-4-methylpentanamide], the half-inhibitory concentration (IC50) was 63 nM.

In the case of `CCOc1cc(NC(=O)[C@H](N)CC(C)C)ccc1-c1cnco1` [Example 17, (R)-2-Amino-N-(3-ethoxy-4-(oxazol-5-yl)phenyl)-4-methylpentanamide], the half-maximal inhibitory concentration (IC50) was determined as 66 nM.

In the case of `CC1CCCCC1C(N)C(=O)Nc1ccc(-c2ccncc2)cc1` (mixture of isomers) [Example 121, 2-Amino-2-(2-methylcyclohexyl)-N-(4-(pyridin-4-yl)phenyl)acetamide], the half-inhibitory concentration (IC50) came to 140 nM.

On to `COc1cc(NC(=O)[C@@H](N)CC(C)C)ccc1-c1cnco1` [Example 5, (S)-2-Amino-N-(3-methoxy-4-(oxazol-5-yl)phenyl)-4-methylpentanamide], for which the concentration for half-maximal inhibition (IC50) was 104 nM.

With `COc1c(-c2cnco2)ccc(NC(=O)[C@H](N)CC(C)C)c1Cl` [Example 28, (R)-2-Amino-N-(2-chloro-3-methoxy-4-(oxazol-5-yl)phenyl)-4-methylpentanamide], the half-inhibitory concentration (IC50) was 709 nM.

Take `COc1cc(NC(=O)[C@@H](CC(C)C)NCc2csnn2)ccc1-c1cnco1` [Example 67, (R)-2-(((1,2,3-Thiadiazol-4-yl)methyl)amino)-N-(3-methoxy-4-(oxazol-5-yl)phenyl)-4-methylpentanamide]: the IC50 was 260 nM.

Consider `CC(C)C[C@@H](N)C(=O)Nc1ccc(-c2cnco2)c(F)c1` [Example 40, (R)-2-Amino-N-(3-fluoro-4-(oxazol-5-yl)phenyl)-4-methylpentanamide], for which the IC50 came to 460 nM.

With `CC(C)C[C@@H](N)C(=O)Nc1ccc(-c2ccncc2)cc1C(F)(F)F` [Example 111, (R)-2-Amino-4-methyl-N-(4-(pyridin-4-yl)-2-(trifluoromethyl)phenyl)pentanamide], the IC50 is 300 nM.

In the case of `COc1cc(NC(=O)[C@H](N)CC(C)C)ccc1-c1cn[nH]n1` [Example 19, (R)-2-Amino-N-(3-methoxy-4-(2H-1,2,3-triazol-4-yl)phenyl)-4-methylpentanamide], the IC50 was 56 nM.

With `COc1cc(NC(=O)[C@@H]2CCCN2C(C)C)ccc1-c1cnco1` [Example 81, (S)-1-Isopropyl-N-(3-methoxy-4-(oxazol-5-yl)phenyl)pyrrolidine-2-carboxamide], the IC50 turned out to be 510 nM.

Turning to `COc1cc(NC(=O)CN2CCCC2=O)ccc1-c1cnco1` [Example 59, N-(3-Methoxy-4-(oxazol-5-yl)phenyl)-2-(2-oxopyrrolidin-1-yl)acetamide], the concentration for half-maximal inhibition (IC50) came out at 2400 nM.

Take `COc1cc(NC(=O)C(N)CCC(C)C)ccc1-c1cnco1` (stereo not drawn) [Example 8, 2-Amino-N-(3-methoxy-4-(oxazol-5-yl)phenyl)-5-methylhexanamide]: the IC50 was found to be 90 nM.

In the case of `COc1cc(NC(=O)C(N)CC(C)(C)F)ccc1-c1cnco1` (stereo not drawn) [Example 84, 2-Amino-4-fluoro-N-(3-methoxy-4-(oxazol-5-yl)phenyl)-4-methylpentanamide], the IC50 came to 240 nM.

Consider `COc1cc(NC(=O)C2NCCCC2C(C)C)ccc1-c1cnco1` (single isomer, unassigned) [Example 87, 3-Isopropyl-N-(3-methoxy-4-(oxazol-5-yl)phenyl)piperidine-2-carboxamide], for which the 50% inhibitory concentration (IC50) came out at 280 nM.

For `COc1cc(NC(=O)[C@@H](CC(C)C)NCc2ccc(C)cc2)ccc1-c1cnco1` [Example 63, (R)—N-(3-Methoxy-4-(oxazol-5-yl)phenyl)-4-methyl-2-((4-methylbenzyl)amino)pentanamide], the IC50 is 540 nM.

As to `COc1cc(NC(=O)[C@@H](CC(C)C)NS(=O)(=O)c2ccccc2)ccc1-c1cnco1` [Example 71, (R)—N-(3-methoxy-4-(oxazol-5-yl)phenyl)-4-methyl-2-(phenylsulfonamido)pentanamide], the concentration for half-maximal inhibition (IC50) came out at 400 nM.

`COc1cc(NC(=O)[C@H](N)CC(C)C)c(-c2nn[nH]n2)cc1-c1cnco1` [Example 102, (R)-2-Amino-N-(5-methoxy-4-(oxazol-5-yl)-2-(2H-tetrazol-5-yl)phenyl)-4-methylpentanamide]: the IC50 was determined as 6 nM.

`COc1cc(NC(=O)[C@@H](CC(C)C)NCc2cnn(C)c2)ccc1-c1cnco1` [Example 64, (R)—N-(3-Methoxy-4-(oxazol-5-yl)phenyl)-4-methyl-2-(((1-methyl-1H-pyrazol-4-yl)methyl)amino)pentanamide]: the IC50 came out at 150 nM.

For `CC(C)C[C@@H](N)C(=O)Nc1ccc(-c2ccncc2)cc1C#N` [Example 114, (R)-2-Amino-N-(2-cyano-4-(pyridin-4-yl)phenyl)-4-methylpentanamide], the IC50 was 75 nM.

Take `COc1cc(NC(=O)C2CCCCN2C(C)C)ccc1-c1cnco1` (stereo not drawn) [Example 83, 1-Isopropyl-N-(3-methoxy-4-(oxazol-5-yl)phenyl)piperidine-2-carboxamide]: the IC50 worked out at 360 nM.

For `CCC[C@H](N)C(=O)Nc1ccc(-c2cnco2)c(OC)c1` [Example 51, (S)-2-Amino-N-(3-methoxy-4-(oxazol-5-yl)phenyl)pentanamide], the IC50 was determined as 590 nM.

For the compound `COc1cc(NC(=O)[C@H](N)CC(C)C)ccc1-c1cn[nH]c1` [Example 24, (R)-2-Amino-N-(3-methoxy-4-(1H-pyrazol-4-yl)phenyl)-4-methylpentanamide], the half-inhibitory concentration (IC50) was determined as 19 nM.

Regarding `CC(C)C[C@@H](N)C(=O)Nc1ccc(-c2cnco2)c(OC(F)(F)F)c1` [Example 106, (R)-2-Amino-4-methyl-N-(4-(oxazol-5-yl)-3-(trifluoromethoxy)phenyl)pentanamide], the 50% inhibitory concentration (IC50) was determined as 160 nM.

Regarding `COc1cc(NC(=O)[C@H](N)CCSC)ccc1-c1cnco1` [Example 54, (R)-2-Amino-N-(3-methoxy-4-(oxazol-5-yl)phenyl)-4-(methylthio)butanamide], the IC50 was 720 nM.

Consider `O=C(Nc1ccc(-c2ccncc2)cc1)C1NCCCC1C(F)(F)F` (mixture of isomers) [Example 120, N-(4-(Pyridin-4-yl)phenyl)-3-(trifluoromethyl)piperidine-2-carboxamide], for which the IC50 stood at 220 nM.

`CCCC[C@@H](N)C(=O)Nc1ccc(-c2cnco2)c(OC)c1` [Example 52, (R)-2-Amino-N-(3-methoxy-4-(oxazol-5-yl)phenyl)hexanamide]: the IC50 was 530 nM.

Take `COc1cc(NC(=O)[C@H](N)CC2CC2)c(F)cc1-c1cnco1` (stereo in doubt) [Example 95, 2-Amino-3-cyclopropyl-N-(2-fluoro-5-methoxy-4-(oxazol-5-yl)phenyl)propanamide]: the half-maximal inhibitory concentration (IC50) was 420 nM.

One may read the IC50 as the concentration needed to halve the response being measured.

The record behind these values is patent US10253027B2, “Aryl lactam kinase inhibitors” (Bristol-Myers Squibb Company, priority 2013, dated 2019).
